Experimental data from ChEMBL document CHEMBL1201862, “PubChem BioAssay data set” (2004).
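Exposure lasted 48 hours, with cells grown in 96-well plates and compounds tested at five concentrations. Abbreviation: GI50, concentration required for 50% inhibition of growth.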 Activity calls are given as the source filed them. Cut-off read from the data, not from the text of the source: active = GI50 up to about 1.1 µM and inactive = higher.

What was measured:
Experiment in all cases: NCI tumour cell line growth inhibition, 48 h
HCT-15 = test system: HCT-15
OVCAR-4 = test system: OVCAR-4
NCI-H226 = test system: NCI-H226
HOP-62 = test system: HOP-62
786-0 = test system: 786-0
TK-10 = test system: TK-10
OVCAR-8 = test system: OVCAR-8
Malme-3M = test system: Malme-3M
SF-539 = test system: SF-539
SR = test system: SR
UACC-62 = test system: UACC-62
M19-MEL = test system: M19-MEL
M14 = test system: M14
HT-29 = test system: HT-29
UO-31 = test system: UO-31
RPMI-8226 = test system: RPMI-8226
SK-MEL-5 = test system: SK-MEL-5
COLO 205 = test system: COLO 205

SMILES | GI50 (HCT-15) | GI50 (OVCAR-4) | GI50 (NCI-H226) | GI50 (HOP-62) | GI50 (786-0) | GI50 (TK-10) | GI50 (OVCAR-8) | GI50 (Malme-3M) | GI50 (SF-539) | GI50 (SR) | GI50 (UACC-62) | GI50 (M19-MEL) | GI50 (M14) | GI50 (HT-29) | GI50 (UO-31) | GI50 (RPMI-8226) | GI50 (SK-MEL-5) | GI50 (COLO 205)
C/C(=N\N(c1ccccc1)c1ccccc1)c1c(O)cc(C)oc1=O | 71.3 µM | 45.1 µM (inactive) | > 100 µM (inactive) | > 100 µM (inactive) | > 100 µM (inactive) | > 100 µM (inactive) | > 100 µM (inactive) | > 100 µM (inactive) | 67.8 µM (inactive) | 56.9 µM (inactive) | 54 µM (inactive) | 81.7 µM (inactive) | > 100 µM (inactive) | > 100 µM (inactive) | 25.7 µM (inactive) |  |  | 
N#CCCc1nc2ccc(Br)cc2c(=O)n1CCO | > 100 µM | > 100 µM (inactive) | > 100 µM (inactive) | > 100 µM (inactive) | > 100 µM (inactive) | > 100 µM (inactive) | > 100 µM (inactive) | > 100 µM (inactive) | > 100 µM (inactive) |  | > 100 µM (inactive) | > 100 µM (inactive) | > 100 µM (inactive) |  | > 100 µM (inactive) | > 100 µM (inactive) | > 100 µM (inactive) | > 100 µM (inactive)
COc1cccc(-c2cc(O)c3cc(OC)c(OC)cc3n2)c1 | 52.6 µM |  |  | 42.1 µM (inactive) | 46.6 µM (inactive) | 51.6 µM (inactive) | 45.2 µM (inactive) | 35.7 µM (inactive) | 26.4 µM (inactive) | 56.1 µM (inactive) | 43.6 µM (inactive) | 59.8 µM (inactive) | 37.9 µM (inactive) | 20.1 µM (inactive) | 41.6 µM (inactive) | 45.3 µM (inactive) |  | 39.3 µM (inactive)
Cc1cccc(C(=O)O)c1C(=O)c1cccc2ccccc12 | 37.7 µM | > 100 µM (inactive) | > 100 µM (inactive) | > 100 µM (inactive) | > 100 µM (inactive) | > 100 µM (inactive) | > 100 µM (inactive) | > 100 µM (inactive) |  | > 100 µM (inactive) | > 100 µM (inactive) | > 100 µM (inactive) | > 100 µM (inactive) | > 100 µM (inactive) | > 100 µM (inactive) |  | > 100 µM (inactive) | > 100 µM (inactive)
C=C1Cc2cc(OC)c(OC)c(OC)c2-c2ccc(SC)c(=O)cc21 | < 0.01 µM | 4.26 µM (inactive) | < 0.01 µM (active) | < 0.01 µM (active) | < 0.01 µM (active) | 0.916 µM (active) | < 0.01 µM (active) | < 0.01 µM (active) | < 0.01 µM (active) | < 0.01 µM (active) | < 0.01 µM (active) | < 0.01 µM (active) | < 0.01 µM (active) | < 0.01 µM (active) |  | < 0.01 µM (active) | < 0.01 µM (active) | < 0.01 µM (active)
Cc1ccc(S(=O)(=O)N[C@H](C(=O)O)c2ccccc2)cc1 | > 100 µM | > 100 µM (inactive) | > 100 µM (inactive) |  | > 100 µM (inactive) | > 100 µM (inactive) | > 100 µM (inactive) | > 100 µM (inactive) | > 100 µM (inactive) |  | > 100 µM (inactive) | > 100 µM (inactive) | > 100 µM (inactive) | > 100 µM (inactive) | > 100 µM (inactive) | 26.8 µM (inactive) | > 100 µM (inactive) | > 100 µM (inactive)
O=[N+]([O-])c1cccc(C2SCc3nc4ccccc4n32)c1 (stereo not drawn) |  | 63.8 µM (inactive) | 39.6 µM (inactive) | > 100 µM (inactive) | > 100 µM (inactive) | > 100 µM (inactive) | > 100 µM (inactive) | 54.1 µM (inactive) | > 100 µM (inactive) | 82.4 µM (inactive) | 34.3 µM (inactive) | > 100 µM (inactive) |  | > 100 µM (inactive) | 31.6 µM (inactive) |  | 19.6 µM (inactive) | > 100 µM (inactive)
Cc1cc(C(=O)NCCN(C)C)c2nc3ccccc3nc2c1 | 2.9 µM | 4.75 µM (inactive) | 3.44 µM (inactive) | 2.17 µM (inactive) | 7.8 µM (inactive) | 4.42 µM (inactive) | 4.81 µM (inactive) | 3.21 µM (inactive) | 4.31 µM (inactive) | 0.453 µM (active) | 6.32 µM (inactive) | 3.13 µM (inactive) | 4.98 µM (inactive) | 2.67 µM (inactive) |  | 3.15 µM (inactive) | 4.44 µM (inactive) | 3.08 µM (inactive)
NC(=O)NC1C(C(N)=O)N(Cc2ccccc2)C(=O)N1Cc1ccccc1 (stereo not drawn) | > 100 µM | > 100 µM (inactive) |  | > 100 µM (inactive) | > 100 µM (inactive) | > 100 µM (inactive) | > 100 µM (inactive) | > 100 µM (inactive) | > 100 µM (inactive) | > 100 µM (inactive) | > 100 µM (inactive) | > 100 µM (inactive) | > 100 µM (inactive) | > 100 µM (inactive) | > 100 µM (inactive) | > 100 µM (inactive) | > 100 µM (inactive) | > 100 µM (inactive)
CCCCCCCCCCCC(=O)OCC1OC(n2cc(F)c(=O)[nH]c2=O)C(NC(=O)OCc2ccccc2)C(O)C1O (stereo not drawn) | 19.7 µM | 23.8 µM (inactive) |  | 44.9 µM (inactive) | 24 µM (inactive) | 38.8 µM (inactive) | 21.2 µM (inactive) | 21 µM (inactive) | 22 µM (inactive) | 19.1 µM (inactive) | 19.3 µM (inactive) | 20 µM (inactive) | 19.6 µM (inactive) | 16.1 µM (inactive) | 30.3 µM (inactive) | 19.4 µM (inactive) | 20.3 µM (inactive) | 21.2 µM (inactive)
N#CC1C2CCC3(CC2CCN1C(=O)c1ccccc1)OCCO3 (stereo not drawn) | > 100 µM | > 100 µM (inactive) |  | > 100 µM (inactive) | > 100 µM (inactive) | > 100 µM (inactive) | > 100 µM (inactive) | > 100 µM (inactive) | > 100 µM (inactive) | > 100 µM (inactive) | > 100 µM (inactive) | > 100 µM (inactive) | > 100 µM (inactive) | > 100 µM (inactive) | > 100 µM (inactive) | > 100 µM (inactive) | > 100 µM (inactive) | > 100 µM (inactive)
CC1=CC(=O)NP(=O)(Oc2ccc(Cl)cc2)N1 (stereo not drawn) | > 100 µM | > 100 µM (inactive) | > 100 µM (inactive) | > 100 µM (inactive) | > 100 µM (inactive) | > 100 µM (inactive) | > 100 µM (inactive) | > 100 µM (inactive) | > 100 µM (inactive) | > 100 µM (inactive) | > 100 µM (inactive) | > 100 µM (inactive) | > 100 µM (inactive) | > 100 µM (inactive) | > 100 µM (inactive) | > 100 µM (inactive) | > 100 µM (inactive) | > 100 µM (inactive)
O=C(CN(Cc1ccccc1)Cc1ccccc1)N1CCc2c([nH]c3ccccc23)C1c1cccnc1 (stereo not drawn) | 5.64 µM | 3.99 µM (inactive) |  | 39 µM (inactive) | 5.87 µM (inactive) | 27.5 µM (inactive) | 6.1 µM (inactive) |  | 12.2 µM (inactive) | 5.28 µM (inactive) | 11.1 µM (inactive) | 5.98 µM (inactive) | 3.66 µM (inactive) | 5.57 µM (inactive) | 2.63 µM (inactive) | 1.86 µM (inactive) | 7.23 µM (inactive) | 
N#CC(NNC(=O)Cc1ccccc1)c1ccc([N+](=O)[O-])cc1 (stereo not drawn) | > 100 µM | > 100 µM (inactive) | > 100 µM (inactive) | > 100 µM (inactive) | > 100 µM (inactive) | > 100 µM (inactive) | > 100 µM (inactive) | > 100 µM (inactive) | > 100 µM (inactive) | > 100 µM (inactive) | > 100 µM (inactive) | > 100 µM (inactive) | > 100 µM (inactive) | > 100 µM (inactive) | > 100 µM (inactive) | > 100 µM (inactive) | > 100 µM (inactive) | > 100 µM (inactive)
CC(C)(C)C(=O)O[C@@H]1COC2C(O)COC21 (stereo partly drawn) |  | > 100 µM (inactive) |  | > 100 µM (inactive) | > 100 µM (inactive) | > 100 µM (inactive) | > 100 µM (inactive) | > 100 µM (inactive) | > 100 µM (inactive) | > 100 µM (inactive) | > 100 µM (inactive) | > 100 µM (inactive) | > 100 µM (inactive) | > 100 µM (inactive) | > 100 µM (inactive) |  | > 100 µM (inactive) | > 100 µM (inactive)
CC(C)C(/C=C/c1ccccc1)=N\NC(=O)N/N=C(/C=C/c1ccccc1)C(C)C | 20.7 µM | 35 µM (inactive) | 18.2 µM (inactive) | 40.6 µM (inactive) | 18.9 µM (inactive) | 33.8 µM (inactive) | 28.8 µM (inactive) |  | 31.1 µM (inactive) | 20.8 µM (inactive) | 56.9 µM (inactive) | 21 µM (inactive) | 39.4 µM (inactive) | 26.5 µM (inactive) | 14.7 µM (inactive) | 24.3 µM (inactive) | 21.7 µM (inactive) | 18.4 µM (inactive)
Cc1cccc(CC(C)(C)C)c1NC(=O)C(=O)C(C(=O)c1ccc2ccccc2c1)C1OC(=O)c2ccccc21 (stereo not drawn) | 15.3 µM | 41.5 µM (inactive) | 2.4 µM (inactive) | 15.4 µM (inactive) | 7.23 µM (inactive) |  | 6.58 µM (inactive) | 10.8 µM (inactive) | 2.95 µM (inactive) | 3.72 µM (inactive) | 7.52 µM (inactive) | 14.6 µM (inactive) | 27.2 µM (inactive) | 20.2 µM (inactive) | 16 µM (inactive) | 10.1 µM (inactive) | 13.1 µM (inactive) | 15.4 µM (inactive)
